The text below walks through data of PMC6271649, “Synthesis and Biological Evaluation of Substituted Desloratadines as Potent Arginine Vasopressin V2 Receptor Antagonists” (Molecules, 2014).

SMILES strings stand for the structures. Like-named read-outs stand apart in the source and are kept apart here.

Test in all cases: radioligand binding assay
In assay [1] the target is T1, human recombinant vasopressin V2 receptor (Homo sapiens, UniProt P30518).
T1 construct: gene AVPR2; full-length recombinant receptor in 1321N1 host cells (PerkinElmer)
T1 sequence (P30518 whole entry): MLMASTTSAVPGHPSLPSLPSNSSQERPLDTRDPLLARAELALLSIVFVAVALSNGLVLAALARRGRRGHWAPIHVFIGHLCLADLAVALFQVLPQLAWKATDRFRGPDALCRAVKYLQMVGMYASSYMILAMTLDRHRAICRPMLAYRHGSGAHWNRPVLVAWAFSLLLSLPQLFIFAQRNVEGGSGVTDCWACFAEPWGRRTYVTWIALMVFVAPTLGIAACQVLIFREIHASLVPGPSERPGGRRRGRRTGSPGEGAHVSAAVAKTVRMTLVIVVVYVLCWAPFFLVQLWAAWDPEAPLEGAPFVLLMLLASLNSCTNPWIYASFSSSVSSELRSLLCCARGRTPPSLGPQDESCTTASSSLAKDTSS
Particulars: read-out: Bingding Assy (IC50; nmol/mL) / V2. An excerpt: (§1) radioligand binding assay on human recombinant vasopressin V2 receptor

In assay [2] the target is T2, human recombinant vasopressin V1a receptor (Homo sapiens, UniProt P37288).
T2 construct: gene AVPR1A; full-length recombinant receptor in 1321N1 host cells (PerkinElmer)
T2 sequence (P37288 whole entry): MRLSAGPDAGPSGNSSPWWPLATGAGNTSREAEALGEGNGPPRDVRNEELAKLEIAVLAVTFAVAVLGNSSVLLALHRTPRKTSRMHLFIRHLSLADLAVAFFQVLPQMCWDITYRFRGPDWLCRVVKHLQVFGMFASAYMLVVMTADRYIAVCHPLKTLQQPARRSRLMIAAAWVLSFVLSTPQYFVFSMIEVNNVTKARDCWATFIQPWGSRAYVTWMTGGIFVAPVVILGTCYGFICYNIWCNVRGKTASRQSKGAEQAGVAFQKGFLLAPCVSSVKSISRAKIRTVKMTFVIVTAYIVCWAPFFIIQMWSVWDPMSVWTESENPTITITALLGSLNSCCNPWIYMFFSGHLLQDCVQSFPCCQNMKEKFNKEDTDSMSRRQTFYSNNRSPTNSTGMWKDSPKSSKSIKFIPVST
The format is cell-based. Particulars: read-out: Bingding Assy (IC50; nmol/mL) / V1a. An excerpt: (§2) radioligand binding assay on human recombinant vasopressin V1a receptor

Assay [3] has as its target T1, human recombinant vasopressin V2 receptor. The format is cell-based. The following applies: read-out: Bingding Assy (IC50; nmol/mL) / V2.
Text: as §1

Assay [4] concerns the target T2, human recombinant vasopressin V1a receptor. The following applies: read-out: Bingding Assy (IC50; nmol/mL) / V1a.
Text: as §2

As for `O=C(Nc1ccc(S(=O)(=O)N2CCC(=C3c4ccc(Cl)cc4CCc4cccnc43)CC2)cc1)c1cccc(Cl)c1` [1x, 3-Chloro-N-(4-((4-(8-chloro-5H-benzo[5,6]cyclohepta[1,2-b]pyridin-11(6H)-ylidene)piperidin-1-yl)-sulfonyl)phenyl)benzamide], the half-inhibitory concentration (IC50) in assay [1] is 310 nmol/mL; in assay [2] it was greater than 1000 nmol/mL.
Turning to `Cc1ccc(S(=O)(=O)Nc2ccc(S(=O)(=O)N3CCC(=C4c5ccc(Cl)cc5CCc5cccnc54)CC3)cc2)cc1` [1y, N-(4-((4-(8-Chloro-5H-benzo[5,6]cyclohepta[1,2-b]pyridin-11(6H)-ylidene)piperidin-1-yl)sulfonyl)phenyl)-4-methylbenzenesulfonamide], the half-maximal inhibitory concentration (IC50) is 170 nmol/mL in assay [1] and 920 nmol/mL in assay [2].
Consider `O=C(Nc1cccc(S(=O)(=O)N2CCC(=C3c4ccc(Cl)cc4CCc4cccnc43)CC2)c1)c1ccccc1` [1t, N-(3-((4-(8-Chloro-5H-benzo[5,6]cyclohepta[1,2-b]pyridin-11(6H)-ylidene)piperidin-1-yl)sulfonyl)phenyl)benzamide], for which the IC50 in assay [2] is greater than 1000 nmol/mL.
With `CCCC(=O)Nc1ccc(S(=O)(=O)N2CCC(=C3c4ccc(Cl)cc4CCc4cccnc43)CC2)cc1` [1f, N-(4-((4-(8-Chloro-5H-benzo[5,6]cyclohepta[1,2-b]pyridin-11(6H)-ylidene)piperidin-1-yl)sulfonyl)phenyl)butyramide], the IC50 in assay [3] was 40 nmol/mL; in assay [4], 480 nmol/mL.
Take `Cc1ccc(S(=O)(=O)Nc2cccc(S(=O)(=O)N3CCC(=C4c5ccc(Cl)cc5CCc5cccnc54)CC3)c2)cc1` [1w, N-(3-((4-(8-Chloro-5H-benzo[5,6]cyclohepta[1,2-b]pyridin-11(6H)-ylidene)piperidin-1-yl)sulfonyl)phenyl)-4-methylbenzenesulfonamide]: the IC50 in assay [1] is 30 nmol/mL; in assay [2], 860 nmol/mL.
For the molecule `O=C(Nc1ccc(C(=O)N2CCC(=C3c4ccc(Cl)cc4CCc4cccnc43)CC2)cc1)c1ccccc1` [1g, N-(4-(4-(8-Chloro-5H-benzo[5,6]cyclohepta[1,2-b]pyridin-11(6H)-ylidene)piperidine-1-carbonyl)phenyl)benzamide], the IC50 was found to be 19 nmol/mL in assay [3] and 330 nmol/mL in assay [4].
With `COc1cccc(C(=O)Nc2ccc(C(=O)N3CCC(=C4c5ccc(Cl)cc5CCc5cccnc54)CC3)cc2)c1` [1n, N-(4-(4-(8-Chloro-5H-benzo[5,6]cyclohepta[1,2-b]pyridin-11(6H)-ylidene)piperidine-1-carbonyl)phenyl)-3-methoxybenzamide], in assay [2], the half-maximal inhibitory concentration (IC50) is 390 nmol/mL.
Consider `O=C(CCCCl)Nc1ccc(C(=O)N2CCC(=C3c4ccc(Cl)cc4CCc4cccnc43)CC2)cc1` [1c, 4-Chloro-N-(4-(4-(8-chloro-5H-benzo[5,6]cyclohepta[1,2-b]pyridin-11(6H)-ylidene)piperidine-1-carbonyl)phenyl)butanamide], for which the values for the half-maximal inhibitory concentration (IC50) in assay [3] and in assay [4] were 25 nmol/mL and greater than 1000 nmol/mL, respectively.
For `O=C(c1ccc(NS(=O)(=O)c2ccccc2Cl)cc1)N1CCC(=C2c3ccc(Cl)cc3CCc3cccnc32)CC1` [1r, 2-Chloro-N-(4-(4-(8-chloro-5H-benzo[5,6]cyclohepta[1,2-b]pyridin-11(6H)-ylidene)piperidine-1-carbonyl)phenyl)benzenesulfonamide], the IC50 in assay [2] worked out at 830 nmol/mL.
As to `O=C(Nc1cccc(S(=O)(=O)N2CCC(=C3c4ccc(Cl)cc4CCc4cccnc43)CC2)c1)c1cccc(Cl)c1` [1u, 3-Chloro-N-(3-((4-(8-chloro-5H-benzo[5,6]cyclohepta[1,2-b]pyridin-11(6H)-ylidene)piperidin-1-yl)-sulfonyl)phenyl)benzamide], the IC50 in assay [1] turned out to be 19 nmol/mL; in assay [2], 840 nmol/mL.
For the molecule `O=C(Nc1cccc(S(=O)(=O)N2CCC(=C3c4ccc(Cl)cc4CCc4cccnc43)CC2)c1)c1cccc([N+](=O)[O-])c1` [1v, N-(3-((4-(8-Chloro-5H-benzo[5,6]cyclohepta[1,2-b]pyridin-11(6H)-ylidene)piperidin-1-yl)sulfonyl)phenyl)-3-nitrobenzamide], the IC50 in assay [2] worked out at 630 nmol/mL.
`CCCC(=O)Nc1cccc(S(=O)(=O)N2CCC(=C3c4ccc(Cl)cc4CCc4cccnc43)CC2)c1` [1e, N-(3-((4-(8-Chloro-5H-benzo[5,6]cyclohepta[1,2-b]pyridin-11(6H)-ylidene)piperidin-1-yl)sulfonyl)phenyl)butyramide]: the 50% inhibitory concentration (IC50) was 26 nmol/mL in assay [3] and 176 nmol/mL in assay [4].
In the case of `O=C(c1ccc(NS(=O)(=O)c2cc(Cl)ccc2Cl)cc1)N1CCC(=C2c3ccc(Cl)cc3CCc3cccnc32)CC1` [1s, 2,5-Dichloro-N-(4-(4-(8-chloro-5H-benzo[5,6]cyclohepta[1,2-b]pyridin-11(6H)-ylidene)piperidine-1-carbonyl)phenyl)benzenesulfonamide], the IC50 in assay [2] was determined as 320 nmol/mL.
With `CCCC(=O)Nc1ccc(C(=O)N2CCC(=C3c4ccc(Cl)cc4CCc4cccnc43)CC2)cc1` [1b], the IC50 in assay [3] is 47 nmol/mL; in assay [4], greater than 1000 nmol/mL.
Take `O=C(Nc1ccc(C(=O)N2CCC(=C3c4ccc(Cl)cc4CCc4cccnc43)CC2)cc1)c1ccc([N+](=O)[O-])cc1` [1p, N-(4-(4-(8-Chloro-5H-benzo[5,6]cyclohepta[1,2-b]pyridin-11(6H)-ylidene)piperidine-1-carbonyl)phenyl)-4-nitrobenzamide]: the half-inhibitory concentration (IC50) in assay [3] was 52 nmol/mL; in assay [2] it was greater than 1000 nmol/mL.
The matching figures for `O=C(Nc1ccc(C(=O)N2CCC(=C3c4ccc(Cl)cc4CCc4cccnc43)CC2)cc1)c1ccccc1Cl` [1k, 2-Chloro-N-(4-(4-(8-chloro-5H-benzo[5,6]cyclohepta[1,2-b]pyridin-11(6H)-ylidene)piperidine-1-carbonyl)phenyl)benzamide]: 27 nmol/mL and 490 nmol/mL.
In the case of `Cc1cccc(C(=O)Nc2ccc(C(=O)N3CCC(=C4c5ccc(Cl)cc5CCc5cccnc54)CC3)cc2)c1` [1j, N-(4-(4-(8-Chloro-5H-benzo[5,6]cyclohepta[1,2-b]pyridin-11(6H)-ylidene)piperidine-1-carbonyl)phenyl)-3-methylbenzamide], the IC50 in assay [2] is 370 nmol/mL.
As to `Cc1ccc(S(=O)(=O)Nc2ccc(C(=O)N3CCC(=C4c5ccc(Cl)cc5CCc5cccnc54)CC3)cc2)cc1` [1q, N-(4-(4-(8-Chloro-5H-benzo[5,6]cyclohepta[1,2-b]pyridin-11(6H)-ylidene)piperidine-1-carbonyl)phenyl)-4-methylbenzenesulfonamide], the IC50 in assay [3] is 24 nmol/mL; in assay [2] it was 720 nmol/mL.
For the molecule `CCC(=O)Nc1ccc(C(=O)N2CCC(=C3c4ccc(Cl)cc4CCc4cccnc43)CC2)cc1` [1a], in assay [4], the IC50 was found to be 130 nmol/mL.
On to `O=C(Nc1ccc(C(=O)N2CCC(=C3c4ccc(Cl)cc4CCc4cccnc43)CC2)cc1)c1cccc(Cl)c1` [1l, 3-Chloro-N-(4-(4-(8-chloro-5H-benzo[5,6]cyclohepta[1,2-b]pyridin-11(6H)-ylidene)piperidine-1-carbonyl)phenyl)benzamide], for which the values for the half-inhibitory concentration (IC50) in assay [3] and in assay [2] were 16 nmol/mL and 560 nmol/mL, respectively.
Taken in the same sequence, the figures for `O=C(Nc1ccc(C(=O)N2CCC(=C3c4ccc(Cl)cc4CCc4cccnc43)CC2)cc1)c1ccccc1F` [1m, N-(4-(4-(8-Chloro-5H-benzo[5,6]cyclohepta[1,2-b]pyridin-11(6H)-ylidene)piperidine-1-carbonyl)phenyl)-2-fluorobenzamide] were 20 nmol/mL and 170 nmol/mL.
Consider `CCS(=O)(=O)Nc1ccc(C(=O)N2CCC(=C3c4ccc(Cl)cc4CCc4cccnc43)CC2)cc1` [1d, N-(4-(4-(8-Chloro-5H-benzo[5,6]cyclohepta[1,2-b]pyridin-11(6H)-ylidene)piperidine-1-carbonyl)phenyl)ethanesulfonamide], for which the IC50 in assay [4] is 92 nmol/mL.
On to `O=C(Nc1ccc(C(=O)N2CCC(=C3c4ccc(Cl)cc4CCc4cccnc43)CC2)cc1)c1cccc([N+](=O)[O-])c1` [1o, N-(4-(4-(8-Chloro-5H-benzo[5,6]cyclohepta[1,2-b]pyridin-11(6H)-ylidene)piperidine-1-carbonyl)phenyl)-3-nitrobenzamide], for which the 50% inhibitory concentration (IC50) in assay [3] worked out at 18 nmol/mL; in assay [2] it was 550 nmol/mL.
Taken in the same sequence, the figures for `Cc1ccccc1C(=O)Nc1ccc(C(=O)N2CCC(=C3c4ccc(Cl)cc4CCc4cccnc43)CC2)cc1` [1h] were 23 nmol/mL and 210 nmol/mL.
The matching figures for `Cc1ccc(C(=O)Nc2ccc(C(=O)N3CCC(=C4c5ccc(Cl)cc5CCc5cccnc54)CC3)cc2)cc1` [1i]: 18 nmol/mL and 220 nmol/mL.

By IC50 is commonly meant the point on the concentration scale where inhibition reaches its midpoint.
